Experimental data published in BindingDB's records for doi:10.1016/s1074-5521(97)90198-8 (Massachusetts Institute of Technology, 1997).

Target: Methionine aminopeptidase 2 (Homo sapiens, UniProt P50579)
Experiment: Enzymatic Assay
Conditions: pH 7.35; 37 °C
Source text: Enzymatic assay using recombinant human type 2 methionine aminopeptidase (MetAP2).

Chain of Methionine aminopeptidase 2 (P50579 whole entry): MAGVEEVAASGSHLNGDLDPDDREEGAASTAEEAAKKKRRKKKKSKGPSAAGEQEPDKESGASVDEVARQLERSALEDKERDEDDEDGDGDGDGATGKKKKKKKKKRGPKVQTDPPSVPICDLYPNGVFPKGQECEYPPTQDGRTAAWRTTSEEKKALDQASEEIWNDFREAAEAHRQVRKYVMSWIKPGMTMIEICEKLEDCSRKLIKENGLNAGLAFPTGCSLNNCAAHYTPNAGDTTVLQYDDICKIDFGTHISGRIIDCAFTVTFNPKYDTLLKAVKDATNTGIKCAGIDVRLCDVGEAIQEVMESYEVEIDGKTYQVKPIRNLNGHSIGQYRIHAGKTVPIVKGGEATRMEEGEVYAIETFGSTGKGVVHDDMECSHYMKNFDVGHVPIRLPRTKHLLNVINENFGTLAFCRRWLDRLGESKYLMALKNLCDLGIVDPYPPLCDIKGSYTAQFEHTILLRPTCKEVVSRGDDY

## CO[C@@H]1C(=O)CC[C@]2(CO2)C1[C@]1(C)OC1CC=C(C)C (stereo not given in full) [FOS-72]
  IC50: 6 nM

## CO[C@@H]1[C@H](OC(=O)NC(=O)CCl)CC[C@]2(CO2)[C@@]1(O)[C@]1(C)OC1CC=C(C)C (stereo not given in full) [FOS-68]
  IC50: 2 nM

## CO[C@@H]1[C@H](OC(=O)CCCCl)CC[C@]2(CO2)[C@@]1(O)[C@]1(C)OC1CC=C(C)C (stereo not given in full) [FOS-69]
  IC50: 0.1 nM

## CO[C@H]1C([C@]2(C)OC2CC=C(C)C)[C@]2(CC[C@H]1OC(=O)CCCCl)CO2 (stereo not given in full) [FOS-70]
  IC50: 3.5 nM

## CO[C@H]1C([C@]2(C)OC2CC=C(C)C)[C@]2(CC[C@H]1OC(=O)NC(=O)CCl)CO2 (stereo not given in full) [AGM-1470]
  IC50: 1 nM

## CO[C@H]1C([C@]2(C)OC2CC=C(C)C)[C@]2(CC[C@H]1O)CO2 (stereo not given in full) [FOS-37]
  IC50: 8 nM

## CO[C@H]1C([C@]2(C)OC2CC=C(C)C)[C@@](O)(SC)CC[C@H]1O (stereo not given in full) [FOS-202]
  IC50: 5000 nM

## CO[C@H]1C([C@]2(C)OC2CC=C(C)C)[C@@](O)(SC)CC[C@H]1OC(=O)NC(=O)CCl (stereo not given in full) [FOS-64]
  IC50: 3000 nM

## CO[C@@H]1[C@H](O)CC[C@](O)(SC)[C@@]1(O)[C@]1(C)OC1CC=C(C)C (stereo not given in full) [FOS-201]
  IC50: 45 nM

## CO[C@@H]1[C@H](O)CC[C@]2(CO2)[C@@]1(O)[C@]1(C)OC1CC=C(C)C (stereo not given in full) [FOS-34]
  IC50: 4 nM
